Reference: patent publication US10451610B2, “Prediction of response to PARP inhibitors and combinational therapy targeting C-MET and PARP1” (Board of Regents, The University of Texas System, priority 2014, dated 2019)

What was measured:
MDA-MB-231 cells = assay: Cell viability assay; assay type: cell-based, human; conditions: for sensitivity to PARP inhibitor, clonogenic cell survival and cell viability: c-Met knockdown vs control, cells expressing wild-type PARP1, FIGS. 3H, 13D-E; for sensitivity of cells to PARP inhibitors: MDA-MB-231, c-Met inhibitor with ABT-888 (cell viability) or AG014699 (clonogenic), FIGS. 2D-E, 8D
Experimental: Cells (1,500) were seeded in a 96-well plate and treated with the indicated inhibitors for 72 h. Then cells were incubated in fresh media with 100 μM resazurin for 1 h. Cell viability was measured by fluorescent plate readers at spectra of 560EX nm/590EM nm. Survival curves were expressed as mean±s.d. relative to DMSO-treated control from three independent experiments.
Cell growth was measured by cell viability, clonogenic cell survival, or soft agar anchorage-independent cell growth assay.

[1] = test system: PARP1 Y907 phosphorylation; assay: PARP1-pY907 staining of MDA-MB-231 xenograft tumor tissues; assay type: in vivo, nude mice; conditions: tissues harvested within 24 h after last treatment; FIG. 4O
Experimental: All animal procedures were conducted under the approval of the Institutional Animal Care and Use Committee (IACUC) at MD Anderson Cancer Center (protocol number 10-14-07231). Female nude mice at 6-8 weeks of age were injected in their mammary fat pads with 0.5×10^6 MDA-MB-231 cells, 2×10^6 HCC1937 cells or 5×10^6 MCF-7 cells. Female FBV at 6-8 weeks of age were injected in their mammary fat pads with 0.5×10^6 A1034 cells. H1993 cells were injected subcutaneously into the right flank of female nude mice at 6-8 weeks of age. For MDA-MB-231 and A1034 cells xenograft mouse models, mice were imaged with the IVIS Imaging System 5 days after injection and were divided into treatment groups (n=10). […] After 2 weeks of treatment, tumor sizes were assessed using with the IVIS Imaging System. Mice were injected with 100 μl of D-luciferin (Xenogen; 15 mg/ml in PBS). After 10 min, mice were anesthetized with a mixture of oxygen and isoflurane (Inhalation Anesthesia System; Matrix Medical, Orchard Park, N.Y.) and underwent imaging with the IVIS Imaging System. Imaging parameters were maintained across experiments for comparative analyses. Tumor samples were collected after final treatment and analyzed by immunofluorescence staining. For toxicity assessment, mice were weighed before and after treatment. Blood samples were collected after treatment. […]

[2] = test system: phosphorylation of PARP1 at Y907; assay: Western blot of H2O2-induced PARP1 pY907 in MDA-MB-231 cells; assay type: cell-based, human; conditions: pre-treatment before H2O2; FIG. 3G
Experimental: For immunoprecipitation (IP), lysates of cells treated as described in the text were precleared with 1 μg of mouse or rabbit IgG and 20 μl of protein G-agarose (Roche, Indianapolis, Ind.) for 1 h at 4° C. Pre-cleared lysates were incubated with 1 μg of primary antibodies or anti-IgG antibody at 4° C. overnight with gentle agitation. Lysates were further incubated with protein G-agarose for 30 min at 4° C. Protein G-agarose pellets were collected and washed three times at 4° C. The immunoprecipitants were subjected to sodium dodecyl sulfate-polyacrylamide gel electrophoresis (SDS-PAGE) and western blot analysis as described previously (Du et al., 2014).

[3] = test system: γH2AX foci formation in MDA-MB-231 cells; assay: γH2AX foci formation by immunofluorescence confocal microscopy; assay type: cell-based, human; conditions: c-Met inhibitor together with PARP inhibitor ABT-888; FIG. 3A
Experimental: Briefly, cells grown on chamber slides (Labtek, Scotts Valley, Calif.) were treated as described in the text. After washing with ice-cold PBS, cells were fixed, permeabilized, and incubated with primary antibodies and fluorescence-labeled secondary antibodies. Immunostained cells were examined using a Zeiss LSM 710 laser-scanning microscope (Carl Zeiss, Thornwood, N.Y.) with a 63×/1.4 objective. The ZEN and AxioVison (Carl Zeiss) and Image J software programs (National Institutes of Health, Bethesda, Md.) were used for data analysis. The mean±s.d. of fluorescence intensity of the indicated antibodies from five images in each treatment group was calculated.

patients with TNBC [4] = conditions: phase 2, combined with chemotherapy; cited from earlier work
patients with TNBC [5] = conditions: phase 3; cited from earlier work
[6] = test system: patients with wild-type BRCA; conditions: cited from earlier work

SMILES | sensitivity to PARP inhibitor, clonogenic cell survival and cell viability (MDA-MB-231 cells) | sensitivity of cells to PARP inhibitors (MDA-MB-231 cells) | phosphorylation of PARP1 at Y907 induced by H2O2 [2] | other results
C[C@]1(c2nc3c(C(N)=O)cccc3[nH]2)CCCN1 [ABT-888, Veliparib] | more sensitive | – | – | –
CNCc1ccc(-c2[nH]c3cc(F)cc4c3c2CCNC4=O)cc1 [AG014699, Rucaparib] | more sensitive | – | – | –
C[C@@H](Oc1cc(-c2cnn(C3CCNCC3)c2)cnc1N)c1c(Cl)ccc(F)c1Cl [crizotinib] | – | enhanced the sensitivity of cells to PARP inhibitors | abolished phosphorylation of PARP1 at Y907 | PARP1 Y907 phosphorylation in tumor tissue [1]: inhibited; γH2AX foci formation (marker of DNA damage) [3]: enhanced γH2AX foci formation
COc1cc2c(Oc3ccc(NC(=O)C4(C(=O)Nc5ccc(F)cc5)CC4)cc3F)ccnc2cc1OCCCN1CCOCC1 [foretinib] | – | enhanced the sensitivity of cells to PARP inhibitors | abolished phosphorylation of PARP1 at Y907 | –
NC(=O)c1ccc(I)c([N+](=O)[O-])c1 [iniparib] | – | – | – | clinical benefit (patients with TNBC [4]): improved clinical benefits; overall survival or progression free survival benefit (patients with TNBC [5]): did not provide significant overall survival or progression free survival benefit
O=C(c1cc(Cc2n[nH]c(=O)c3ccccc23)ccc1F)N1CCN(C(=O)C2CC2)CC1 [olaparib] | – | – | – | clinical response [6]: demonstrated response
